From ChEMBL document CHEMBL1136705, “Analogues of dealanylalahopcin are inhibitors of human HIF prolyl hydroxylases” (Bioorg Med Chem Lett, 2003)
pIC50: −log10 of the molar value.

Biological target: Prolyl hydroxylase EGLN2 (Homo sapiens, UniProt Q96KS0)
Experiment: Inhibitory activity against purified fusion of maltose binding with PHD1 as enzyme and […]

Chain of Prolyl hydroxylase EGLN2 (Q96KS0 whole entry, the tested form may be a part): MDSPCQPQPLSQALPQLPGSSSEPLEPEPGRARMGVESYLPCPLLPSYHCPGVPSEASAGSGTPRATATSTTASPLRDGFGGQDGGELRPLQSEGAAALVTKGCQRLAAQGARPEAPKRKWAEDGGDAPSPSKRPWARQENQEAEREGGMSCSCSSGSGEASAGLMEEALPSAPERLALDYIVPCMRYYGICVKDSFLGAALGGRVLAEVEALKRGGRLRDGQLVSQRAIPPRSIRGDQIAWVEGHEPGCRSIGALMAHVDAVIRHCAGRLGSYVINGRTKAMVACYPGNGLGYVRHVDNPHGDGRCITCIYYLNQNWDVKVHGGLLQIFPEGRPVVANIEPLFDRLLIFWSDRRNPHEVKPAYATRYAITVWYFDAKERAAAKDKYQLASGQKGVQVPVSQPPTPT

pIC50: 3.00
SMILES: O=C(O)CC1CC(=O)N(O)C1=O (racemic)
